How the values were obtained:
[1] = biological target: G-quadruplexes; details: literature statement; cited from earlier work
[2] = biological target: T95_2T (single loop propeller-type parallel G-quadruplex); assay: Quantitative gel mobility shift assay of Rhau55 binding to T95_2T; details: gel electrophoresis, DNA 100 nM, read-out: dissociation constant
Method: (§1) (A) T95_2 T and Htelo1 at a concentration of 100 nM were incubated for 15 minutes at room temperature with an increasing concentration of Rhau55. (B) Quantification of gel electrophoresis assays bands of T95_2 T (black dot) and Htelo1 in dilute (open square) and crowding condition (black cross).
(§2) Subsequently, a quantitative analysis of the interaction between Rhau55 and three G-quadruplexes was performed using gel electrophoresis (FIG. 4). The analysis indicated a dissociation constant of 1029 nM and 989 nM for the parallel-type form of Htelo1 (under crowded condition) and the single, loop propeller-type T95_2 T, respectively, consistent with previous published data for the full-length protein (Tran H et al. (2004) Mol Cell, 13, 101). In contrast an apparent binding of >10 μM was found with the hybrid “3+1” form 1, and an estimated Kd over 10 μM was found for Htelo2, Htelo3 and Hetol4 non-parallel forming sequences, highlighting a net preference for the human telomeric sequences forming a parallel-type G-quadruplex. From the data little effect on three (Htelo1, parallel form) and single (T95_2T) loop size was observed on Rhau55 binding affinity.

[3] = biological target: parallel-type form of Htelo1 (under crowded condition); assay: Quantitative gel mobility shift assay, Htelo1 in crowding condition (40% PEG); format: binding, human; details: parallel-type form of Htelo1 under crowded condition (40% PEG); gel electrophoresis; read-out: dissociation constant
Method: as §1
(§3) To confirm that the observed selective effect was based on the structure rather than sequence, the binding of Rhau55 was tested using the human telomeric sequences in K^+-containing solution, with and without crowded condition (40% v/v PEG200). In diluted solutions the human telomeric sequences Htelo1, Htelo2, Htelo3 and Helo4 form a distinct and non-parallel G-quadruplex (Luu K N et al. (2006) J Am ChemSoc, 128(30), 9963-9970; Phan A T et al. (2006) Nucleic Acids Res, 34(19), 5715-5719; Lim K W et al. (2009) J Am ChemSoc, 131(12), 4301-430; Lim K W et al. (2009) Nucleic Acids Res, 37(18), 6239-6248), however in crowded conditions those sequences form a propeller-type parallel stranded G-quadruplex.
Subsequently, a quantitative analysis of the interaction between Rhau55 and three G-quadruplexes was performed using gel electrophoresis (FIG. 4). […]

[4] = biological target: Htelo1 hybrid "3+1" form 1 G-quadruplex; assay: Quantitative gel mobility shift assay, Htelo1 in dilute condition; set-up: species or system human; details: Htelo1 hybrid "3+1" form 1, dilute condition; read-out: apparent binding
Method: as §1, §2

[5] = biological target: Htelo2 non-parallel G-quadruplex; assay: Gel electrophoresis binding, Htelo2; set-up: species or system human; details: Htelo2 non-parallel forming sequence; read-out: estimated Kd
Method: (§4) DNA concentrations were fixed at 100 nM and Rhau55 was 1 μM, in 70 mM KCL and 20 mM phosphate buffer (pH=6.8).
as §3
(§5) Subsequently, a quantitative analysis of the interaction between Rhau55 and three G-quadruplexes was performed using gel electrophoresis (FIG. 4). The analysis indicated a dissociation constant of 1029 nM and 989 nM for the parallel-type form of Htelo1 (under crowded condition) and the single, loop propeller-type T95_2 T, respectively, consistent with previous published data for the full-length protein (Tran H et al. (2004) Mol Cell, 13, 101). […]

[6] = biological target: Htelo3 non-parallel G-quadruplex; assay: Gel electrophoresis binding, Htelo3; set-up: species or system human; details: Htelo3 non-parallel forming sequence; read-out: estimated Kd
Method: as §4, §3, §5

[7] = biological target: Htelo4 non-parallel G-quadruplex; assay: Gel electrophoresis binding, Htelo4; set-up: species or system human; details: Hetol4 non-parallel forming sequence; read-out: estimated Kd
Method: as §4, §3, §5

[8] = tested on: parallel G-quadruplexes DNA and RNA (93del, CEB25, Pu24T, CEB1, TERC18, 12 nt TER, 10 nt TER); assay: Native gel electrophoresis of Rhau55 with parallel G-quadruplexes; format: binding; details: various parallel G-quadruplexes DNA and RNA; DNA 100 μM, 70 mM KCl, 20 mM phosphate pH 6.8
Method: The ratio between Rhau55 and Nucleic acids is indicated on top of each lane. DNA concentrations were fixed at 100 μM, in 70 mM KCL and 20 mM phosphate buffer (pH=6.8).
Rhau55 was expressed in Escherichia coli. The binding of Rhau55 to different G-quadruplexes nucleic acids topology was first tested using gel electrophoresis.
(§6) Rhau55 binds to various parallel G-quadruplexes DNA and RNA (FIGS. 1 and 3-5) but not to various forms of non-parallel G-quadruplexes (FIGS. 1 and 6).

[9] = tested on: human telomeric sequences Htelo1-Htelo4 G-quadruplexes; assay: Gel shift assay of human telomeric sequences with and without crowded condition (40% v/v PEG200); format: binding; details: human telomeric sequences in K+ solution, dilute (non-parallel) vs crowded 40% v/v PEG200 (parallel)
Method: as §4, §3

[10] = tested on: mixture of T95_2T (propeller parallel form) and HT1 (non-parallel); assay: NMR imino proton spectra of a mixture of HT1 and T95_2T with Rhau55; format: binding; details: Rhau55 added to mixture of T95_2T (parallel) and HT1 (non-parallel)
Excerpt: as §6

Compound: C[n+]1cc(NC(=O)c2ccc3ccc4ccc(C(=O)Nc5cc6ccccc6[n+](C)c5)nc4c3n2)cc2ccccc21 [Phen-DC3]
- dissociation constant Kd [1]: nanomolar range

Compound: Rhau55: G-quadruplex binding domain of human helicase Rhau (DHX36), N-terminal residues 53 to 105, expressed in Escherichia coli (HPGHLKGREIGMWYAKKQGQKNKEAERQERAVVHMDERREEQIVQLLNSVQAK; UniProt Q9H2U1 53-105, looked up, fragment)
- Kd [2]: 0.989 µM
- Kd [3]: 1.03 µM
- Kd [4]: > 10 µM
- Kd [5]: > 10 µM
- Kd [6]: > 10 µM
- Kd [7]: > 10 µM
- binding in gel electrophoresis [8]: binds
- binding in gel shift assay [9]: binds significantly only to a parallel-type G-quadruplex
- effect on NMR imino proton peaks [10]: only affect the peaks of the former form
